# Results: patent US20110100079A1, “METHOD FOR IMPARTING STRESS TOLERANCE TO PLANT” (priority 2007, published 2011)
# How the values were obtained:
# Type in all cases: in vivo
# tomato [1] = experiment: Example 7 drying stress test (tomato), soil culture; conditions: 23° C., 100 ppm, 2 weeks; for Fresh weight, relative value (untreated plot = 100), Comparison 1: stress-free: tomato soil culture, EC 1, pF 1.7, two-leaf stage; for Fresh weight, relative value (untreated plot = 100), Test 1 / Fresh weight, relative value (untreated plot = 100), Test 4 / Fresh weight, relative value (untreated plot = 100), Test 2 / Fresh weight, relative value (untreated plot = 100), Test 3: tomato soil culture; for Fresh weight, relative value (untreated plot = 100), Test 1: EC 1, pF 2.8, two-leaf stage; for Fresh weight, relative value (untreated plot = 100), Test 4: EC 1, pF 3.5, five-leaf stage; for Fresh weight, relative value (untreated plot = 100), Test 2: EC 1, pF 3.5, two-leaf stage; for Fresh weight, relative value (untreated plot = 100), Test 3: EC 1, pF 4.1, two-leaf stage
# Procedure: (§1) The environmental conditions in a climatic chamber were controlled so as to have a temperature of 23° C., an illuminance by a fluorescent light of 5000 Lux, and a daily light-dark cycle of a 16-hour light period and an 8-hour dark period. Tomatoes as prepared above were transplanted in size-3 (9 cm) pots. During the test period, the pF value was controlled by adding a suitable amount of tap water once a day so as to attain a specific drying stress value. A treatment solution containing a compound of Table 1 in a specific concentration (the remainder was water) was prepared and sprayed onto the leaves or applied to the underground portions. […] A comparative example was constructed to reflect the drying stress-free optimum cultivation conditions to investigate the plant energizing ability. […] Moreover, when the products of the present invention and the comparative products were compared, the stress tolerance imparting ability of the products of the present invention was higher in respective drying stress conditions.
# [2] = system: Potato Variety: Toyoshiro; experiment: Example 5 drying stress tolerance imparting test (potato variety Toyoshiro); conditions: 3 weeks
# Procedure: Other cultivation conditions were the same as the conditions of the drying stress test. Drying stress conditions: soil pF value: 2.3, 2.5, or 2.9, cultivation temperature: 23° C., relative humidity: 50%, illuminance: 5000 Lux (fluorescent light), light/dark cycle: 16 hours/8 hours (2) Cultivation Period: 3 weeks (3) Soil: Kureha gardening soil manufactured by Kureha Corporation (fertilizer components: N:P:K=0.4:1.9:0.6 g/kg soil) (4) The chemicals used and the amount of a treatment solution applied were the same as in Example 3. Method of Drying Stress Tolerance Imparting Test A planter (60 cm) was filled with Kureha gardening soil manufactured by Kureha Corporation (fertilizer components: N:P:K=0.4:1.9:0.6 g/kg soil) in a glass greenhouse, tubers of a “Thyoshiro” potato were cut in half: and 5 pieces thereof were planted in the planter, thinly covered with Kureha gardening soil, and sufficiently watered to allow the tubers to sprout. When the leaves in the 3-leaf stage fully unfolded, the Solarium tuberosu was relocated on a plant culture rack in an air-conditioned room, and a test was initiated. […] From immediately after the beginning of the test, a treatment solution of Table 1 was sprayed onto the leaves or applied to the underground portions once a week. […] Five specimens (per planter) were prepared for each of the test plot and the control plots, plant bodies were collected 3 weeks after the beginning of the test such that the roots were not cut, the soil was washed away with running water, the fresh plant body weights were measured, and a plant stress level and an extent of imparting plant stress tolerance were calculated according to Formula (ii) and (iii) above using the average of the weights.
# “Momotaro” tomato = experiment: Example 2 temperature stress tolerance imparting test (tomato); conditions: 2 weeks
# Procedure: Other cultivation conditions were the same as the conditions of the temperature stress test. […] (2) Solution culture medium: […] Method of Temperature Stress Tolerance Imparting Test The temperature in a climatic chamber was controlled so as to be 10, 15, or 32° C. The environmental conditions were controlled so as to have an illuminance by a fluorescent light of 5000 Lux and a daily light-dark cycle of a 16-hour light period and a 8-hour dark period. In this test, a temperature of 23° C. at which the optimum growth was observed was regarded as a reference temperature (temperature stress-free test condition), and a stress was imposed by applying a temperature higher or lower than the reference temperature. A tomato as prepared above was planted in a 250 ml polyethylene bottle filled with the solution culture medium (½ Otsuka A formulation). A treatment solution as presented in Table 1 was sprayed onto the leaves or applied to the underground portion. […] Ten specimens were prepared for each of the test plot and the control plots, and a plant stress level and an extent of imparting plant stress tolerance were calculated according to Formula (ii) and (iii) above using as a fresh plant body weight the average of the fresh plant body weights of each specimen 2 weeks after the beginning of the test.
# tomato [3] = experiment: Example 8 temperature stress test (tomato), soil culture; conditions: 100 ppm, 2 weeks; for Fresh weight, relative value (untreated plot = 100), Comparison 1: stress-free: tomato soil culture, cultivation temperature 23, EC 1, pF 1.7, two-leaf stage; for Fresh weight, relative value (untreated plot = 100), Test 1 / Fresh weight, relative value (untreated plot = 100), Test 2 / Fresh weight, relative value (untreated plot = 100), Test 3 / Fresh weight, relative value (untreated plot = 100), Test 4: tomato soil culture; for Fresh weight, relative value (untreated plot = 100), Test 1: cultivation temperature 10, EC 1, pF 1.7, two-leaf stage; for Fresh weight, relative value (untreated plot = 100), Test 2: cultivation temperature 16, EC 1, pF 1.7, two-leaf stage; for Fresh weight, relative value (untreated plot = 100), Test 3: cultivation temperature 29, EC 1, pF 1.7, two-leaf stage; for Fresh weight, relative value (untreated plot = 100), Test 4: cultivation temperature 35, EC 1, pF 1.7, two-leaf stage
# Procedure: as §1, with “Other Conditions were as in Example 5. The” for “The”, “have” for “have a temperature of 23° C.,”, “Lux,” for “Lux, and”, “period, and various temperatures.” for “period.”, “pots.” for “pots. During the test period, the pF value was controlled by adding a suitable amount of tap water once a day so as to attain a specific drying stress value.”, “temperature” for “drying”
# [4] = pF 2.3, leaf, 100 ppm once a week
compound,measurement,setting,value
"OC[C@H]1O[C@H](OC[C@H]2O[C@H](O[C@]3(CO)O[C@H](CO)[C@@H](O)[C@@H]3O)[C@H](O)[C@@H](O)[C@@H]2O)[C@H](O)[C@@H](O)[C@H]1O [Comparative product 4, Raffinose, reference compound]","Fresh weight, relative value (untreated plot = 100), Comparison 1",tomato [1]; leaf,102
same,"Fresh weight, relative value (untreated plot = 100), Test 1",tomato [1]; leaf,103
same,"Fresh weight, relative value (untreated plot = 100), Test 4",tomato [1]; leaf,101
same,"Fresh weight, relative value (untreated plot = 100), Test 2",tomato [1]; leaf,103
same,"Fresh weight, relative value (untreated plot = 100), Test 3",tomato [1]; leaf,103
same,Extent of imparting plant stress tolerance,[2]; [4],103%
same,Extent of imparting plant stress tolerance,"“Momotaro” tomato; 32° C., leaf, 100 ppm",103%
same,"Fresh weight, relative value (untreated plot = 100), Comparison 1",tomato [3]; leaf,102
same,"Fresh weight, relative value (untreated plot = 100), Test 1",tomato [3]; leaf,100
same,"Fresh weight, relative value (untreated plot = 100), Test 2",tomato [3]; leaf,100
same,"Fresh weight, relative value (untreated plot = 100), Test 3",tomato [3]; leaf,101
same,"Fresh weight, relative value (untreated plot = 100), Test 4",tomato [3]; leaf,101
"Sucrose fatty acid ester (C18, HLB = 15) [Product of present invention 20]","Fresh weight, relative value (untreated plot = 100), Comparison 1",tomato [1]; leaf,103
same,"Fresh weight, relative value (untreated plot = 100), Test 1",tomato [1]; leaf,119
same,"Fresh weight, relative value (untreated plot = 100), Test 4",tomato [1]; leaf,136
same,"Fresh weight, relative value (untreated plot = 100), Test 2",tomato [1]; leaf,139
same,"Fresh weight, relative value (untreated plot = 100), Test 3",tomato [1]; leaf,124
same,Extent of imparting plant stress tolerance,[2]; [4],118%
same,Extent of imparting plant stress tolerance,"“Momotaro” tomato; 32° C., leaf, 100 ppm",115%
same,"Fresh weight, relative value (untreated plot = 100), Comparison 1",tomato [3]; leaf,102
same,"Fresh weight, relative value (untreated plot = 100), Test 1",tomato [3]; leaf,114
same,"Fresh weight, relative value (untreated plot = 100), Test 2",tomato [3]; leaf,116
same,"Fresh weight, relative value (untreated plot = 100), Test 3",tomato [3]; leaf,133
same,"Fresh weight, relative value (untreated plot = 100), Test 4",tomato [3]; leaf,122
Alkyl (C10) polyglycoside [Product of present invention 15],"Fresh weight, relative value (untreated plot = 100), Comparison 1",tomato [1]; leaf,101
same,"Fresh weight, relative value (untreated plot = 100), Test 1",tomato [1]; leaf,121
same,"Fresh weight, relative value (untreated plot = 100), Test 4",tomato [1]; leaf,139
same,"Fresh weight, relative value (untreated plot = 100), Test 2",tomato [1]; leaf,147
same,"Fresh weight, relative value (untreated plot = 100), Test 3",tomato [1]; leaf,126
same,Extent of imparting plant stress tolerance,[2]; [4],119%
same,Extent of imparting plant stress tolerance,"[2]; pF 2.3, leaf, 200 ppm once a week",116%
same,Extent of imparting plant stress tolerance,"“Momotaro” tomato; 32° C., leaf, 100 ppm",115%
same,Extent of imparting plant stress tolerance,"“Momotaro” tomato; 32° C., leaf, 200 ppm",115%
same,"Fresh weight, relative value (untreated plot = 100), Comparison 1",tomato [3]; leaf,102
same,"Fresh weight, relative value (untreated plot = 100), Test 1",tomato [3]; leaf,116
same,"Fresh weight, relative value (untreated plot = 100), Test 2",tomato [3]; leaf,119
same,"Fresh weight, relative value (untreated plot = 100), Test 3",tomato [3]; leaf,136
same,"Fresh weight, relative value (untreated plot = 100), Test 4",tomato [3]; leaf,126
POE (20) sorbitan monooleic acid ester [Product of present invention 1],"Fresh weight, relative value (untreated plot = 100), Comparison 1",tomato [1]; underground portion,103
same,"Fresh weight, relative value (untreated plot = 100), Test 1",tomato [1]; underground portion,134
same,"Fresh weight, relative value (untreated plot = 100), Test 4",tomato [1]; underground portion,160
same,"Fresh weight, relative value (untreated plot = 100), Test 2",tomato [1]; underground portion,188
same,"Fresh weight, relative value (untreated plot = 100), Test 3",tomato [1]; underground portion,145
same,Extent of imparting plant stress tolerance,"[2]; pF 2.3, leaf, 1 ppm once a week",112%
same,Extent of imparting plant stress tolerance,"[2]; pF 2.3, leaf, 10 ppm once a week",113%
same,Extent of imparting plant stress tolerance,[2]; [4],113%
same,Extent of imparting plant stress tolerance,"[2]; pF 2.3, leaf, 1000 ppm once a week",119%
same,Extent of imparting plant stress tolerance,"[2]; pF 2.3, underground portion, 100 ppm once a week",134%
same,Extent of imparting plant stress tolerance,"[2]; pF 2.5, leaf, 100 ppm once a week",115%
same,Extent of imparting plant stress tolerance,"[2]; pF 2.5, underground portion, 100 ppm once a week",127%
same,Extent of imparting plant stress tolerance,"[2]; pF 2.9, leaf, 100 ppm once a week",124%
same,Extent of imparting plant stress tolerance,"[2]; pF 2.9, underground portion, 100 ppm once a week",134%
same,Extent of imparting plant stress tolerance,"“Momotaro” tomato; 10° C., leaf, 100 ppm",125%
same,Extent of imparting plant stress tolerance,"“Momotaro” tomato; 10° C., underground portion, 100 ppm",140%
same,Extent of imparting plant stress tolerance,"“Momotaro” tomato; 15° C., leaf, 100 ppm",117%
same,Extent of imparting plant stress tolerance,"“Momotaro” tomato; 15° C., underground portion, 100 ppm",130%
same,Extent of imparting plant stress tolerance,"“Momotaro” tomato; 32° C., leaf, 1 ppm",113%
same,Extent of imparting plant stress tolerance,"“Momotaro” tomato; 32° C., leaf, 10 ppm",113%
same,Extent of imparting plant stress tolerance,"“Momotaro” tomato; 32° C., leaf, 100 ppm",114%
same,Extent of imparting plant stress tolerance,"“Momotaro” tomato; 32° C., leaf, 1000 ppm",119%
same,Extent of imparting plant stress tolerance,"“Momotaro” tomato; 32° C., underground portion, 100 ppm",127%
same,"Fresh weight, relative value (untreated plot = 100), Comparison 1",tomato [3]; underground portion,103
same,"Fresh weight, relative value (untreated plot = 100), Test 1",tomato [3]; underground portion,128
same,"Fresh weight, relative value (untreated plot = 100), Test 2",tomato [3]; underground portion,131
same,"Fresh weight, relative value (untreated plot = 100), Test 3",tomato [3]; underground portion,158
same,"Fresh weight, relative value (untreated plot = 100), Test 4",tomato [3]; underground portion,138
